Results: paper PMC11288027, “Exploring novel microbial metabolites and drugs for inhibiting Clostridioides difficile” (mSphere, 2024)
≈ marks a conversion by molar mass, not a printed value. Counter-ions that a name gives are not always drawn. Like-named read-outs stand apart in the source and are kept apart here.

How the values were obtained:
[1] = system: C. difficile ATCC BAA-1870; test: Time-kill assay at 5 × MIC; settings: C. difficile ATCC BAA-1870, ~10^6 CFU/mL, up to 24 h
Bif. angulatum = test: MIC against human gut microbiota; format: cell-based, Bifidobacterium angulatum; settings: Bifidobacterium angulatum, read-out: minimum inhibitory concentration (MIC)
L. brevis = test: MIC against human gut microbiota; format: cell-based, Lactobacillus brevis; settings: Levilactobacillus brevis
E. fecalis = test: MIC against human gut microbiota; format: cell-based, Enterococcus faecalis; settings: Enterococcus faecalis, read-out: minimum inhibitory concentration (MIC)
Bif. breve = test: MIC against human gut microbiota; format: cell-based, Bifidobacterium breve; settings: Bifidobacterium breve
B. dorei = test: MIC against human gut microbiota; format: cell-based, Bacteroides dorei; settings: Phocaeicola dorei, read-out: minimum inhibitory concentration (MIC)
Bif. longum = test: MIC against human gut microbiota; format: cell-based, Bifidobacterium longum; settings: Bifidobacterium longum, read-out: minimum inhibitory concentration (MIC)
L. casei = test: MIC against human gut microbiota; format: cell-based; settings: Lacticaseibacillus casei
L. rhamanosus = test: MIC against human gut microbiota; format: cell-based, Lactobacillus rhamnoosus; settings: Lactobacillus
Bif. adolescentis = test: MIC against human gut microbiota; format: cell-based, Bifidobacterium adolescentis; settings: Bifidobacterium adolescentis, read-out: minimum inhibitory concentration (MIC)
[2] = system: C. difficile clinical isolates; test: MIC against a panel of 20 C. difficile clinical isolates (broth microdilution); format: cell-based, Clostridioides difficile; settings: Clostridioides difficile; for MIC50: concentration that inhibited 50% of the 20 C. difficile clinical isolates
B. fragilis = test: MIC against human gut microbiota; format: cell-based, Bacteroides fragilis; settings: for MIC: Bacteroides fragilis, read-out: minimum inhibitory concentration (MIC)
[3] = system: C. difficile ATCC BAA-1870; test: MIC of active hits by broth microdilution; settings: Clostridioides difficile, ATCCBAA1870, 48 h
E. faecium = test: MIC against human gut microbiota; format: cell-based, Enterococcus faecium; settings: Enterococcus faecium, read-out: minimum inhibitory concentration (MIC)

## CN[C@H](CC(C)C)C(=O)N[C@H]1C(=O)N[C@@H](CC(N)=O)C(=O)N[C@H]2C(=O)N[C@H]3C(=O)N[C@H](C(=O)N[C@H](C(=O)O)c4cc(O)cc(O)c4-c4cc3ccc4O)[C@H](O)c3ccc(c(Cl)c3)Oc3cc2cc(c3O[C@@H]2O[C@H](CO)[C@@H](O)[C@H](O)[C@H]2O[C@H]2C[C@](C)(N)[C@H](O)[C@H](C)O2)Oc2ccc(cc2Cl)[C@H]1O [Vancomycin, vancomycin hydrochloride]
[1]
  time to eliminate / clear C. difficile: ≤ 24 h
Bif. angulatum
  MIC: ≤ 2 µg/mL
L. brevis; ATCC14864, read-out: minimum inhibitory concentration (MIC)
  MIC: > 256 µg/mL
E. fecalis
  MIC: > 256 µg/mL
Bif. breve; ATCC15700, read-out: minimum inhibitory concentration (MIC)
  MIC: ≤ 2 µg/mL
B. dorei
  MIC: 16 µg/mL
Bif. longum
  MIC: ≤ 2 µg/mL
L. casei; ATCC334, read-out: minimum inhibitory concentration (MIC)
  MIC: > 256 µg/mL
L. rhamanosus; ATCC53103, read-out: minimum inhibitory concentration (MIC)
  MIC: > 256 µg/mL
Bif. adolescentis
  MIC: ≤ 2 µg/mL
[2]
  MIC90: 2 µg/mL
  MIC50: 0.5 µg/mL
[2]; 48 h
  MIC50: 0.5 µg/mL
[2]; ATCC630, read-out: minimum inhibitory concentration (MIC), C. difficile ATCC 630
  MIC: 0.25 µg/mL
[2]; ATCC43255, read-out: minimum inhibitory concentration (MIC), C. difficile ATCC 43255
  MIC: 0.25 µg/mL
[2]; ATCCBAA1870, read-out: minimum inhibitory concentration (MIC), C. difficile ATCC BAA-1870 (Ribotype-027), purchased compounds, panel test
  MIC: 1 µg/mL
[2]; read-out: minimum inhibitory concentration (MIC), C. difficile CD-1 (Ribotype-027)
  MIC: 2 µg/mL
[2]; read-out: minimum inhibitory concentration (MIC), C. difficile CD-6 (Ribotype-027)
  MIC: 2 µg/mL
[2]; read-out: minimum inhibitory concentration (MIC), C. difficile CD-10(Ribotype-027)
  MIC: 2 µg/mL
[2]; read-out: minimum inhibitory concentration (MIC), C. difficile CD-12
  MIC: 1 µg/mL
[2]; read-out: minimum inhibitory concentration (MIC), C. difficile CD-13
  MIC: 0.5 µg/mL
[2]; read-out: minimum inhibitory concentration (MIC), C. difficile CD-15
  MIC: 0.5 µg/mL
[2]; read-out: minimum inhibitory concentration (MIC), C. difficile CD-22
  MIC: 0.5 µg/mL
[2]; read-out: minimum inhibitory concentration (MIC), C. difficile CD-23
  MIC: 0.25 µg/mL
[2]; read-out: minimum inhibitory concentration (MIC), C. difficile CD-24
  MIC: 0.25 µg/mL
[2]; read-out: minimum inhibitory concentration (MIC), C. difficile CD-26 (Ribotype-027)
  MIC: 1 µg/mL
[2]; read-out: minimum inhibitory concentration (MIC), C. difficile CD-28
  MIC: 0.5 µg/mL
[2]; read-out: minimum inhibitory concentration (MIC), C. difficile CD-29 (Ribotype-027)
  MIC: 1 µg/mL
[2]; read-out: minimum inhibitory concentration (MIC), C. difficile CD-30
  MIC: 0.5 µg/mL
[2]; read-out: minimum inhibitory concentration (MIC), C. difficile NR-49302
  MIC: 0.5 µg/mL
[2]; read-out: minimum inhibitory concentration (MIC), C. difficile NR-49304
  MIC: 0.5 µg/mL
[2]; read-out: minimum inhibitory concentration (MIC), C. difficile NR-49308
  MIC: 0.5 µg/mL
[2]; read-out: minimum inhibitory concentration (MIC), C. difficile NR-49319
  MIC: 0.5 µg/mL
B. fragilis
  minimum inhibitory concentration (MIC): 32 µg/mL
  MIC: 16 µg/mL
[3]
  MIC: 1 µg/mL
E. faecium
  MIC: ≤ 2 µg/mL

## CCc1c(Cl)c(O)c(Cl)c(O)c1C(=O)O[C@H]1[C@H](O)[C@H](OC)[C@H](OC/C2=C\C=C\C[C@H](O)/C(C)=C/[C@H](CC)[C@@H](O[C@@H]3OC(C)(C)[C@@H](OC(=O)C(C)C)[C@H](O)[C@@H]3O)/C(C)=C/C(C)=C/C[C@@H]([C@@H](C)O)OC2=O)O[C@@H]1C [Fidaxomicin]
[1]
  time to eliminate / clear C. difficile: ≤ 24 h
Bif. angulatum; Bif. angulatum HM- 1189, BHIS broth, anaerobic
  MIC: ≤ 2 µg/mL
L. brevis; ATCC14864, L. brevis ATCC-14864, MRS broth, 5% CO2, read-out: minimum inhibitory concentration (MIC)
  MIC: 64 µg/mL (≈ 60.5 µM)
E. fecalis; E. fecalis HM-970, TSB, aerobic
  MIC: ≤ 2 µg/mL
Bif. breve; ATCC15700, Bif. breve ATCC 15700, BHIS broth, anaerobic, read-out: minimum inhibitory concentration (MIC)
  MIC: ≤ 2 µg/mL
B. dorei; B. dorei HM- 719, BHIS broth, anaerobic
  MIC: > 256 µg/mL
Bif. longum; Bif. longum HM- 845, BHIS broth, anaerobic
  MIC: ≤ 2 µg/mL
Bif. longum; Bif. longum HM- 846, BHIS broth, anaerobic
  MIC: ≤ 2 µg/mL
Bif. longum; Bif. longum HM- 847, BHIS broth, anaerobic
  MIC: ≤ 2 µg/mL
Bif. longum; Bif. longum HM- 848, BHIS broth, anaerobic
  MIC: ≤ 2 µg/mL
L. casei; ATCC334, L. casei ATCC 334, MRS broth, 5% CO2, read-out: minimum inhibitory concentration (MIC)
  MIC: 8 µg/mL (≈ 7.56 µM)
L. rhamanosus; ATCC53103, L. rhamanosus ATCC-53103, MRS broth, 5% CO2, read-out: minimum inhibitory concentration (MIC)
  MIC: 8 µg/mL (≈ 7.56 µM)
Bif. adolescentis; Bif. adolescentis HM- 633, BHIS broth, anaerobic
  MIC: ≤ 2 µg/mL
[2]; 48 h, read-out: MIC50
  MIC50: 0.015 µg/mL (≈ 0.0142 µM)
[2]; ATCC630, C. difficile ATCC 630, read-out: minimum inhibitory concentration (MIC)
  MIC: ≤ 0.0078 µg/mL
[2]; ATCC43255, C. difficile ATCC 43255, read-out: minimum inhibitory concentration (MIC)
  MIC: 0.03 µg/mL (≈ 0.0284 µM)
[2]; ATCCBAA1870, C. difficile ATCC BAA-1870 (Ribotype-027), purchased compounds, panel test, read-out: minimum inhibitory concentration (MIC)
  MIC: ≤ 0.0078 µg/mL
[2]; C. difficile CD-1 (Ribotype-027), read-out: minimum inhibitory concentration (MIC)
  MIC: 0.06 µg/mL (≈ 0.0567 µM)
[2]; C. difficile CD-6 (Ribotype-027), read-out: minimum inhibitory concentration (MIC)
  MIC: 0.06 µg/mL (≈ 0.0567 µM)
[2]; C. difficile CD-10(Ribotype-027), read-out: minimum inhibitory concentration (MIC)
  MIC: 0.03 µg/mL (≈ 0.0284 µM)
[2]; C. difficile CD-12, read-out: minimum inhibitory concentration (MIC)
  MIC: 0.03 µg/mL (≈ 0.0284 µM)
[2]; C. difficile CD-13, read-out: minimum inhibitory concentration (MIC)
  MIC: ≤ 0.0078 µg/mL
[2]; C. difficile CD-15, read-out: minimum inhibitory concentration (MIC)
  MIC: 0.015 µg/mL (≈ 0.0142 µM)
[2]; C. difficile CD-22, read-out: minimum inhibitory concentration (MIC)
  MIC: ≤ 0.0078 µg/mL
[2]; C. difficile CD-23, read-out: minimum inhibitory concentration (MIC)
  MIC: 0.06 µg/mL (≈ 0.0567 µM)
[2]; C. difficile CD-24, read-out: minimum inhibitory concentration (MIC)
  MIC: ≤ 0.0078 µg/mL
[2]; C. difficile CD-26 (Ribotype-027), read-out: minimum inhibitory concentration (MIC)
  MIC: 0.06 µg/mL (≈ 0.0567 µM)
[2]; C. difficile CD-28, read-out: minimum inhibitory concentration (MIC)
  MIC: 0.015 µg/mL (≈ 0.0142 µM)
[2]; C. difficile CD-29 (Ribotype-027), read-out: minimum inhibitory concentration (MIC)
  MIC: ≤ 0.0078 µg/mL
[2]; C. difficile CD-30, read-out: minimum inhibitory concentration (MIC)
  MIC: 0.015 µg/mL (≈ 0.0142 µM)
[2]; C. difficile NR-49302, read-out: minimum inhibitory concentration (MIC)
  MIC: 0.03 µg/mL (≈ 0.0284 µM)
[2]; C. difficile NR-49304, read-out: minimum inhibitory concentration (MIC)
  MIC: ≤ 0.0078 µg/mL
[2]; C. difficile NR-49308, read-out: minimum inhibitory concentration (MIC)
  MIC: ≤ 0.0078 µg/mL
[2]; C. difficile NR-49319, read-out: minimum inhibitory concentration (MIC)
  MIC: 0.03 µg/mL (≈ 0.0284 µM)
[2]; read-out: MIC50
  MIC50: 0.015 µg/mL (≈ 0.0142 µM)
[2]; concentration that inhibited 90% of the 20 C. difficile clinical isolates, read-out: MIC90
  MIC90: 0.06 µg/mL (≈ 0.0567 µM)
B. fragilis; B. fragilis HM- 709, BHIS broth, anaerobic
  MIC: > 256 µg/mL
B. fragilis; B. fragilis HM- 718, BHIS broth, anaerobic
  MIC: > 256 µg/mL
[3]; C. difficile ATCC BAA-1870, 48 h anaerobic
  MIC: ≤ 0.0078 µg/mL
E. faecium; E. faecium HM-202, TSB, aerobic
  MIC: ≤ 2 µg/mL
